Patent US20260055126A1, “SMALL MOLECULE COMPOUNDS WITH PHOSPHORYLATED ARYL STRUCTURES AND USE THEREOF” (HANGZHOU PHECDAMED CO., LTD., priority 2022, published 2026)
“And” between values parts separate entries of the source, which are not always exact repeats. Identical values can stand only once.

Key:
[1] = system: recombinant TEAD1 protein (194-411, Uniprot ID: P28347); experiment: Thermal shift assay (protein melting point curve), TEAD1; format: binding; design: key to the marks not given beside the values; settings: 10 μM TEAD protein, 50 μM test compound
[2] = target: recombinant TEAD2 protein (218-447, Uniprot ID: Q15562) (Homo sapiens (Human), UniProt Q15562); experiment: Thermal shift assay (protein melting point curve), TEAD2; format: binding; settings: 10 μM TEAD protein, 50 μM test compound
[3] = target: recombinant TEAD3 protein (218-435, Uniprot ID: Q99594) (Homo sapiens (Human), UniProt Q99594); experiment: Thermal shift assay (protein melting point curve), TEAD3; format: binding; settings: 10 μM TEAD protein, 50 μM test compound
[4] = In vitro liver microsome stability, dog; format: in vitro ADME; settings: dog liver microsomes
Method: (§1) Testosterone is selected as the positive reference compound. The specific method is as follows:
(§2) Preparing 0.1MK3 PO4 (pH 7.4) buffer and 3×NADPH stock solution (6 mM, 5 mg/mL), and preheating in a 37° C. water bath; preparing spiking solution of tested compound and control compound: adding 5 μL compound stock solution (10 mM) to 95 μL acetonitrile; preparing 1.5 μM spiking solution in microsomes (0.75 mg/mL): add 1.5 μL spiking solution and 18.75 μL liver microsome solution (20 mg/mL) to 479.75 μL K3PO4 buffer; taking 30 μL spiking solution in microsomes and adding it to the multiwell plate, and incubating at 37° C. for 5 min; adding 15 μL of NADPH stock solution to each well, starting to react, and timing; adding 150 μL of acetonitrile solution containing IS at 0 min, 5 min, 15 min, 30 min, 45 min and 60 min respectively to terminate the reaction; after 10 min of oscillation, centrifuging the reaction at 6000 rpm for 15 min; taking 80 μL of supernatant from each well for LC/MS detection and calculating Ti/2.
(§3) Liver microsomes of mice, rats, dogs, and human used in the experiment are purchased from Xenotech.

Caco-2 cells = experiment: Permeability test on Caco2 cells; format: in vitro ADME; settings: for Papp average value: n = 2; for Papp / Receiving chamber concentration Area ratio/OD: single replicate
Method: After resuscitation, the Caco-2 cells are transferred to a conventional culture dish and cultured in a high-glucose DMEM medium (containing 10% FBS) at 37° C. and 5% CO2 in an incubator. When the cells cover 80% to 95% of the bottom of the dish, they are digested with trypsin containing 0.25% EDTA to disperse them into a single cell suspension, and the cell concentration is determined using a cell counter, after that, the concentration of the cell suspension is adjusted to 2 to 2.5×10^5/mL with fresh culture medium and inoculated into a Transwell polycarbonate membrane 12-well plate, the fresh culture medium is replaced every two days in the first two weeks and once a day in the last week, the culture is continued for 19 to 21 days to obtain a fully differentiated single cell layer.

[5] = SD rat plasma pharmacokinetic test; format: in vivo
Method: Animal information: SD rats, male, n=6, about 180-200 g, purchased from Sibeifu (Beijing) Biotechnology Co., Ltd.
Animal dietary status: Animals are fasted for at least 12 h before administration and resumed eating 4h after administration; during the experiment, animals are allowed to drink water freely.
Administration: administering the compound to experimental animals (n=3) by intragastric administration at a dose of 10 mg/kg, and the solvent is 0.5% CMC-Na; administering the compound to experimental animals (n=3) by intravenous injection at a dose of 1 mg/kg, and the solvent is DMSO:PEG400:normal saline=5:30:65, preparing immediately before use.
Sample collection: collecting about 0.25 mL of whole blood at each time point, anticoagulating with EDTA-K2, and placing on ice immediately after collection, within 0.5 h after collection, centrifuging at 4° C., 2000 g for 5 min, and sucking up all plasma and placing in labeled EP tubes, placing the EP tubes on ice, and freezing the plasma samples in a −60˜−90° C. refrigerator within 0.5 h.
Sample processing: centrifuging whole blood samples at 4° C., 2000 g for 5 min within 30 min after collection to separate plasma, and collecting the upper plasma sample into a sample tube.
Sample testing and data processing: Using LC-MS/MS method to detect the concentration of the original drug in plasma samples at each time point. WinNonlin is used for fitting and pharmacokinetic parameter calculation.

[6] = In vitro liver microsome stability, human; format: in vitro ADME; settings: human liver microsomes
Method: as §1, §2, §3

[7] = In vitro liver microsome stability, mouse; format: in vitro ADME; settings: mouse liver microsomes
Method: as §1, §2, §3

recombinant TEAD2 protein (218-447, Uniprot ID: Q15562), sequence (Q15562 218-447): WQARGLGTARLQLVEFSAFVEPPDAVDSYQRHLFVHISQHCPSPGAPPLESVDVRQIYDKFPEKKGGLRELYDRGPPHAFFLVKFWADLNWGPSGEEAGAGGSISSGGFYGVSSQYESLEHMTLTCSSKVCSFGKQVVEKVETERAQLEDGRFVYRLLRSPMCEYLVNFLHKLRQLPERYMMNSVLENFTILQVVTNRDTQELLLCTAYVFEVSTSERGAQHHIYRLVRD
recombinant TEAD3 protein (218-435, Uniprot ID: Q99594), sequence (Q99594 218-435): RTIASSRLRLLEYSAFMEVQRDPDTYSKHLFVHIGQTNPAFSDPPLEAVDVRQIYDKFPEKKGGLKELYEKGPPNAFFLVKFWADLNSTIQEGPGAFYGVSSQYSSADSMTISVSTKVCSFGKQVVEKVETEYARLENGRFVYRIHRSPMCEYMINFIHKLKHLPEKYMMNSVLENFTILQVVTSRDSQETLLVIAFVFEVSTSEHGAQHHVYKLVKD

CP(C)(=O)c1ccc(NCc2ccc(C(F)(F)F)cc2)c(-c2nccc(OC3COC3)n2)c1 [Compound 17]
Δ T m (TEAD1) [1]: ++++ | Δ T m (TEAD2) [2]: ++ | Δ T m (TEAD3) [3]: + | dog half-life [4]: 2.35 h | Papp average value (Caco-2 cells; AP→BL): 8.96 10^−6 cm/s | Papp (Caco-2 cells; AP→BL): 8.81 10^−6 cm/s and 9.12 10^−6 cm/s | Receiving chamber concentration Area ratio/OD (Caco-2 cells; AP→BL): 0.114 and 0.118 | Papp average value (Caco-2 cells; BL→AP): 18.1 10^−6 cm/s | Papp (Caco-2 cells; BL→AP): 18.0 10^−6 cm/s and 18.2 10^−6 cm/s | Receiving chamber concentration Area ratio/OD (Caco-2 cells; BL→AP): 0.699 and 0.708 | Penetration Type (Caco-2 cells; Caco2 cell model): High | intestinal permeability (Caco-2 cells; Caco2 cell model): high intestinal hypertonicity | pharmacokinetic properties in SD rats [5]: good pharmacokinetic properties | AUC0-t ([5]; SD rats, IG 10 mg/kg): 4440 ng·h/mL | AUC0-∞ ([5]; SD rats, IG 10 mg/kg): 4510 ng·h/mL | Cmax ([5]; SD rats, IG 10 mg/kg): 1480 ng/mL | MRT0-t ([5]; SD rats, IG 10 mg/kg): 2.25 h | MRT0-∞ ([5]; SD rats, IG 10 mg/kg): 2.37 h | Tmax ([5]; SD rats, IG 10 mg/kg): 0.50 (0.5, 0.5) h | t1/2 ([5]; SD rats, IG 10 mg/kg): 1.26 h | Absolute bioavailability (%) ([5]; SD rats, IG 10 mg/kg vs IV 1 mg/kg): 84.9% | AUC0-t ([5]; SD rats, IV 1 mg/kg): 506 ng·h/mL | AUC0-∞ ([5]; SD rats, IV 1 mg/kg): 523 ng·h/mL | CL ([5]; SD rats, IV 1 mg/kg): 32.83 mL/min/kg | Cmax ([5]; SD rats, IV 1 mg/kg): 333 ng/mL | MRT0-t ([5]; SD rats, IV 1 mg/kg): 1.52 h | MRT0-∞ ([5]; SD rats, IV 1 mg/kg): 1.73 h | Vss ([5]; SD rats, IV 1 mg/kg): 3.36 L/kg | t1/2 ([5]; SD rats, IV 1 mg/kg): 1.18 h | human half-life [6]: 1.78 h | mouse half-life [7]: 0.565 h
